Species: Rattus norvegicus
Test: DrugMatrix - Regimen: Daily Repeat
Type: toxicity, organism-based, Sprague-Dawley
Design: regimen Daily Repeat, gender Male, age 6-8 weeks
Settings: in vivo, po, 0 mg/kg, route oral GAVAGE, dose level Control, vehicle .5 % CMC; for ABSOLUTE BASOPHIL / ABSOLUTE EOSINOPHIL / ABSOLUTE LYMPHOCYTE / ABSOLUTE MONOCYTE / ABSOLUTE SEGMENTED NEUTROPHIL / BASOPHIL / EOSINOPHIL / ERYTHROCYTE COUNT / HEMATOCRIT / HEMOGLOBIN / LEUKOCYTE COUNT / LYMPHOCYTE / MEAN CORPUSCULAR HEMOGLOBIN / MEAN CORPUSCULAR HEMOGLOBIN CONCENTRATION / MEAN CORPUSCULAR VOLUME / MONOCYTE / NEUTROPHIL / NUCLEATED RED BLOOD CELLS / PLATELET COUNT: tissue Blood; for ALANINE AMINOTRANSFERASE / ALBUMIN / ALKALINE PHOSPHATASE / ASPARTATE AMINOTRANSFERASE / BLOOD UREA NITROGEN / CARBON DIOXIDE / CHLORIDE / CHOLESTEROL / CREATINE PHOSPHOKINASE / CREATININE / GLUCOSE / LACTATE DEHYDROGENASE / LIPASE / PHOSPHORUS / POTASSIUM / SODIUM / TOTAL BILIRUBIN / TOTAL PROTEIN / URIC ACID: tissue Plasma

COc1ccccc1OCC(O)COC(N)=O (stereo unspecified) [METHOCARBAMOL]
ABSOLUTE BASOPHIL (72 h, time 3 day): 0 CELLS/uL
ABSOLUTE EOSINOPHIL (72 h, time 3 day): 171.33 CELLS/uL
ABSOLUTE LYMPHOCYTE (72 h, time 3 day): 13776.5 CELLS/uL
ABSOLUTE MONOCYTE (72 h, time 3 day): 180.83 CELLS/uL
ABSOLUTE SEGMENTED NEUTROPHIL (72 h, time 3 day): 1121.33 CELLS/uL
BASOPHIL (72 h, time 3 day): 0%
EOSINOPHIL (72 h, time 3 day): 1%
ERYTHROCYTE COUNT (72 h, time 3 day): 5.56 x10E6/uL
HEMATOCRIT (72 h, time 3 day): 34.75%
HEMOGLOBIN (72 h, time 3 day): 13.68 G/DL
LEUKOCYTE COUNT (72 h, time 3 day): 15.25 x10E3/uL
LYMPHOCYTE (72 h, time 3 day): 90.17%
MEAN CORPUSCULAR HEMOGLOBIN (72 h, time 3 day): 24.6 pg
MEAN CORPUSCULAR HEMOGLOBIN CONCENTRATION (72 h, time 3 day): 39.4 G/DL
MEAN CORPUSCULAR VOLUME (72 h, time 3 day): 62.48 fL
MONOCYTE (72 h, time 3 day): 1.17%
NEUTROPHIL (72 h, time 3 day): 7.67%
NUCLEATED RED BLOOD CELLS (72 h, time 3 day): 0 /100WBC
PLATELET COUNT (72 h, time 3 day): 1342 x10E3/uL
ALANINE AMINOTRANSFERASE (72 h, time 3 day): 49.67 u/L
ALBUMIN (72 h, time 3 day): 4.15 G/DL
ALKALINE PHOSPHATASE (72 h, time 3 day): 346.83 u/L
ASPARTATE AMINOTRANSFERASE (72 h, time 3 day): 108.17 u/L
BLOOD UREA NITROGEN (72 h, time 3 day): 17.33 mg/dL
CARBON DIOXIDE (72 h, time 3 day): 25 mmol/L
CHLORIDE (72 h, time 3 day): 100.83 MEQ/L
CHOLESTEROL (72 h, time 3 day): 66.83 mg/dL
CREATINE PHOSPHOKINASE (72 h, time 3 day): 788 u/L
CREATININE (72 h, time 3 day): 0.18 mg/dL
GLUCOSE (72 h, time 3 day): 151.67 mg/dL
LACTATE DEHYDROGENASE (72 h, time 3 day): 982.5 u/L
LIPASE (72 h, time 3 day): 10.33 u/L
PHOSPHORUS (72 h, time 3 day): 11.23 mg/dL
POTASSIUM (72 h, time 3 day): 6.37 MEQ/L
SODIUM (72 h, time 3 day): 141.02 MEQ/L
TOTAL BILIRUBIN (72 h, time 3 day): 0.18 mg/dL
TOTAL PROTEIN (72 h, time 3 day): 5.9 G/DL
URIC ACID (72 h, time 3 day): 1.8 mg/dL
ABSOLUTE BASOPHIL (120 h, time 5 day): 0 CELLS/uL
ABSOLUTE EOSINOPHIL (120 h, time 5 day): 69 CELLS/uL
ABSOLUTE LYMPHOCYTE (120 h, time 5 day): 13632.83 CELLS/uL
ABSOLUTE MONOCYTE (120 h, time 5 day): 139.83 CELLS/uL
ABSOLUTE SEGMENTED NEUTROPHIL (120 h, time 5 day): 1225 CELLS/uL
BASOPHIL (120 h, time 5 day): 0%
EOSINOPHIL (120 h, time 5 day): 0.33%
ERYTHROCYTE COUNT (120 h, time 5 day): 5.52 x10E6/uL
HEMATOCRIT (120 h, time 5 day): 33.98%
HEMOGLOBIN (120 h, time 5 day): 13.22 G/DL
LEUKOCYTE COUNT (120 h, time 5 day): 15.07 x10E3/uL
LYMPHOCYTE (120 h, time 5 day): 90.83%
MEAN CORPUSCULAR HEMOGLOBIN (120 h, time 5 day): 23.95 pg
MEAN CORPUSCULAR HEMOGLOBIN CONCENTRATION (120 h, time 5 day): 38.9 G/DL
MEAN CORPUSCULAR VOLUME (120 h, time 5 day): 61.53 fL
MONOCYTE (120 h, time 5 day): 0.83%
NEUTROPHIL (120 h, time 5 day): 8%
NUCLEATED RED BLOOD CELLS (120 h, time 5 day): 0 /100WBC
PLATELET COUNT (120 h, time 5 day): 1196 x10E3/uL
ALANINE AMINOTRANSFERASE (120 h, time 5 day): 49.17 u/L
ALBUMIN (120 h, time 5 day): 4.2 G/DL
ALKALINE PHOSPHATASE (120 h, time 5 day): 352.33 u/L
ASPARTATE AMINOTRANSFERASE (120 h, time 5 day): 89.67 u/L
BLOOD UREA NITROGEN (120 h, time 5 day): 18 mg/dL
CARBON DIOXIDE (120 h, time 5 day): 27.67 mmol/L
CHLORIDE (120 h, time 5 day): 101 MEQ/L
CHOLESTEROL (120 h, time 5 day): 72.83 mg/dL
CREATINE PHOSPHOKINASE (120 h, time 5 day): 417.5 u/L
CREATININE (120 h, time 5 day): 0.18 mg/dL
GLUCOSE (120 h, time 5 day): 150.5 mg/dL
LACTATE DEHYDROGENASE (120 h, time 5 day): 517.33 u/L
LIPASE (120 h, time 5 day): 9 u/L
PHOSPHORUS (120 h, time 5 day): 11.87 mg/dL
POTASSIUM (120 h, time 5 day): 6.57 MEQ/L
SODIUM (120 h, time 5 day): 143.62 MEQ/L
TOTAL BILIRUBIN (120 h, time 5 day): 0.2 mg/dL
TOTAL PROTEIN (120 h, time 5 day): 6.08 G/DL
URIC ACID (120 h, time 5 day): 1.45 mg/dL

— ChEMBL document CHEMBL3885881, “DrugMatrix”
